According to patent publication US20210246115A1 (Bioimics AB, priority 2017, published 2021):
Where a name gives a salt, the structure may show the parent alone.

Key:
[1] = system: E. coli RNase P RNA, M1 RNA; experiment: Inhibition of bacterial RNase P activity, IC50 determination (cleavage of pATSerUG by M1 RNA); assay type: biochemical; conditions: NI: No inhibition
[2] = system: Escherichia coli (ATCC25922); experiment: MIC, broth microdilution (CLSI), Escherichia coli; conditions: Escherichia coli, ATCC25922, read-out: E. coli ATCC 25922 MIC, Table XIII
[3] = system: Staphylococcus aureus (ATCC25923); experiment: MIC, broth microdilution (CLSI), Staphylococcus aureus ATCC25923; conditions: Staphylococcus aureus, ATCC25923, read-out: S. aureus ATCC 25923 MIC

| SMILES | IC50 [1] [µM] | MIC [2] [µg/mL] | MIC [3] [µg/mL] |
| --- | --- | --- | --- |
| Cl.c1ccc2c(CCNCC3CCCC3)c[nH]c2c1 [Compound 20, N-(cyclopentylmethyl)-2-(1H-indol-3-yl)ethan-1-amine hydrochloride salt] | 4140 | > 512 | > 512 |
| Cc1cccc(C(CC(=O)NC2CCNCC2)c2cn(CC3CCOCC3)c3ccccc23)c1.Cl (stereo not drawn) [Compound 284, N-(piperidin-4-yl)-3-(1-((tetrahydro-2H-pyran-4-yl)methyl)-1H-indol-3-yl)-3-(m-tolyl)propanamide hydrochloride salt] | 316 | > 512 | > 512 |
| Cl.N[C@H]1CC[C@H](NC(=O)CCc2cc3ccccc3n2CC2CCCCC2)CC1 [Compound 276, N-((1R,4R)-4-aminocyclohexyl)-3-(1-(cyclohexylmethyl)-1H-indol-2-yl)propanamide hydrochloride salt] | 43 | 54 | 54 |
| Cc1cccc(C(CC(=O)NC2CCC(N)CC2)c2cn(CC3CCCCC3)c3c(Br)cccc23)c1.Cl [Compound 174, N-((1S,4S)-4-aminocyclohexyl)-3-(7-bromo-1-(cyclohexylmethyl)-1H-indol-3-yl)-3-(m-tolyl)propanamide hydrochloride salt] | 32 | > 512 | 150 |
| Cc1cccc(C(CC(=O)NCC2CCC(N)CC2)c2cn(CC3CCCCC3)c3ccc(Br)cc23)c1.Cl [Compound 214, N-(((1R,4R)-4-aminocyclohexyl)methyl)-3-(5-bromo-1-(cyclohexylmethyl)-1H-indol-3-yl)-3-(m-tolyl)propanamide hydrochloride salt] | 13 | > 512 | 10 |
| Cc1cccc(C(CC(=O)NC2CCNCC2)c2cn(CC3CCOCC3)c3ccc(Br)cc23)c1.Cl (stereo not drawn) [Compound 285, 3-(5-bromo-1-((tetrahydro-2H-pyran-4-yl)methyl)-1H-indol-3-yl)-N-(piperidin-4-yl)-3-(m-tolyl) propanamide hydrochloride salt] | 74 | 147 | 37 |
| COc1ccccc1-c1ccc2c(c1)c(CCC(=O)N[C@H]1CC[C@H](N)CC1)cn2CC1CCCCC1.Cl [Compound 230, N-((1R,4R)-4-aminocyclohexyl)-3-(1-(cyclohexylmethyl)-5-(2-methoxyphenyl)-1H-indol-3-yl)propanamide hydrochloride salt] | 11 | 67 | 8 |
| Cc1cccc(C(CC(=O)NCCN(C)C)c2cn(CC3CCCCC3)c3ccccc23)c1.Cl (stereo not drawn) [Compound 103, 3-(1-(cyclohexylmethyl)-1H-indol-3-yl)-N-(2-(dimethylamino)ethyl)-3-(m-tolyl)propanamide hydrochloride salt] | 200 | 128 | 16 |
| Cl.N[C@H]1CC[C@H](NC(=O)Cc2cn(CC3CCCCC3)c3ccc(Br)cc23)CC1 [Compound 190, N-((1R,4R)-4-aminocyclohexyl)-2-(5-bromo-1-(cyclohexylmethyl)-1H-indol-3-yl)acetamide hydrochloride salt] | 10 | 31 | 15 |
| Cc1cccc(C(CC(=O)NCCC2CCNCC2)c2cn(Cc3ccccc3)c3ncccc23)c1.Cl (stereo not drawn) [Compound 39, 3-(1-benzyl-1H-pyrrolo[2,3-b]pyridin-3-yl)-N-(2-(piperidin-4-yl)ethyl)-3-(m-tolyl)propanamide hydrochloride salt] | 959 | > 512 | 265 |
| CC(C)C(CC(=O)N[C@H]1CC[C@H](N)CC1)c1cn(CC2CCCCC2)c2ccccc12.Cl (stereo partly drawn) [Compound 131, N-((1R,4R)-4-aminocyclohexyl)-3-(1-(cyclohexylmethyl)-1H-indol-3-yl)-4-methylpentanamide hydrochloride salt] | 93 | 128 | 32 |
| NC1CCC(NCCC(c2cc(Cl)cc(Cl)c2)c2cn(CC3CCCCC3)c3ccccc23)CC1 [Compound 171, (1S,4S)-N1-(3-(1-(cyclohexylmethyl)-1H-indol-3-yl)-3-(3,5-dichlorophenyl)propyl) cyclohexane-1,4-diamine hydrochloride salt] | 12 | 5 | 2 |
| Cl.N[C@H]1CC[C@H](NC(=O)CCc2cn(CC3CCCCC3)c3ccc(-c4cccc(OC(F)(F)F)c4)cc23)CC1 [Compound 213, N-((1R,4R)-4-aminocyclohexyl)-3-(1-(cyclohexylmethyl)-5-(3-(trifluoromethoxy)phenyl)-1H-indol-3-yl) propanamide hydrochloride salt] | 3 | 296 | 18 |
| NC1CCC(NCCc2cn(CC3CCCCC3)c3ccc(-c4ccccc4OC(F)(F)F)cc23)CC1 [Compound 241, (1S,4S)-N1-(2-(1-(cyclohexylmethyl)-5-(2-(trifluoromethoxy)phenyl)-1H-indol-3-yl)ethyl)cyclohexane-1,4-diamine hydrochloride salt] | 25 | 5 | 2 |
| Cl.O=C(CC(c1cscn1)c1cn(CC2CCCCC2)c2ccccc12)NC1CCNCC1 (stereo not drawn) [Compound 101, 3-(1-(cyclohexylmethyl)-1H-indol-3-yl)-N-(piperidin-4-yl)-3-(thiazol-4-yl)propanamide hydrochloride salt] | 387 | 128 | 128 |
| Cc1cccc(C(CC(=O)N[C@H]2CC[C@H](N)CC2)c2cn(CC3CCCCC3)c3ccc(F)cc23)c1.Cl (stereo partly drawn) [Compound 125, N-((1R,4R)-4-aminocyclohexyl)-3-(1-(cyclohexylmethyl)-5-fluoro-1H-indol-3-yl)-3-(m-tolyl)propanamide hydrochloride salt] | 29 | 256 | 8 |
| Cc1cccc(C(CC(=O)NC2CCNCC2)c2cn(Cc3ccccc3)c3ncccc23)c1.Cl (stereo not drawn) [Compound 70, 3-(1-benzyl-1H-pyrrolo[2,3-b]pyridin-3-yl)-N-(piperidin-4-yl)-3-(m-tolyl)propanamide hydrochloride salt] | 1090 | > 512 | 250 |
| Cc1cccc(C(CC(=O)NCCC2CCNCC2)c2cn(CC3CCCCC3)c3ccc(F)cc23)c1.Cl (stereo not drawn) [Compound 119, 3-(1-(cyclohexylmethyl)-5-fluoro-1H-indol-3-yl)-N-(2-(piperidin-4-yl)ethyl)-3-(m-tolyl)propanamide hydrochloride salt] | 19 | 32 | 8 |
| Cc1cccc(-c2ccc3c(c2)c(CC(=O)NC2CCC(N)CC2)cn3C(=O)C2CCCCC2)c1.Cl [Compound 259, N-((1S,4S)-4-aminocyclohexyl)-2-(1-(cyclohexanecarbonyl)-5-(m-tolyl)-1H-indol-3-yl)acetamide hydrochloride salt] | 20 | > 512 | 267 |
| Cc1cccc(C(CC(=O)N[C@H]2CC[C@H](N(C)C)CC2)c2cn(CC3CCCCC3)c3ccccc23)c1.Cl (stereo partly drawn) [Compound 146, 3-(1-(cyclohexylmethyl)-1H-indol-3-yl)-N-((1R,4R)-4-(dimethylamino)cyclohexyl)-3-(m-tolyl)propanamide hydrochloride salt] | 52 | 256 | 8 |
